{"source": "paper PMC8802628", "about": "“Selective activation of PFKL suppresses the phagocytic oxidative burst” (Cell, 2021)", "key": {"[1]": {"test_system": "MEK or ERK", "experiment": "PMA-induced MEK/ERK activation in neutrophils (western blot)", "type": "cell-based, human", "procedure": "Figure S3. Chemoproteomic analysis of covalent crosslinking using photolabeling probe PALP1, related to Figure 2\n(A) Volcano plots of the fold change in peptides detected after afﬁnity pull-downs using PALP1 and PALP6. P values were calculated by Student’s t test across\nthree replicates. (B and C) Spectral counts of all PFKL (B) or TBB4B (C) peptides across replicates (left) or with individual peptides distinguished by color (right). (D)\nActivity of recombinant NAMPT. Bars represent the mean ± s.d. of 3 independent experiments. (E) western blots of PMNs pretreated with 0.5 mM NA-11 or 1 mM\nMEK1/2 inhibitor U0126 for 30 min, and then activated with 50 nM PMA for 30 min. Results are representative of 3 independent experiments.\n(1 picture or pasted object on this page, not shown here)"}, "[2]": {"test_system": "PMNs", "experiment": "LC-MS of glycolysis and pentose phosphate pathway metabolites", "type": "cell-based, human", "procedure": "Neutrophils (1 × 10^7) were untreated or pretreated with 0.5 μM NA-11 for 25 min, and then activated with 50 nM PMA for 30 min. Cell were washed twice in D-PBS and frozen in liquid nitrogen. Metabolites were extracted following protein precipitation using 500 μL cold (−80°C) MeOH:H2O (8:2, V:V) mixture. Aliquots (250 μL) were evaporated and reconstituted with 75 μL of MeOH:H2O (8:2, V:V) containing a series of stable isotope labeled internal standards. LC-MS analysis was performed on a Shimadzu Nexera HPLC series system (Shimadzu, Kyoto, Japan) couple with a Thermo Q Exactive Plus Hybrid Quadrupole-Orbitrap Mass Spectrometer (Thermo Fisher Scientific, Waltham, MA, USA). A Phenomenex Luna NH2 HPLC column (100 Å, 250 mm × 2 mm × 3 μm, Phenomenex, Torrance, CA, USA) was used to separate the analytes of interest. Samples (5 μL) were analyzed under Heated Electrospray Ionization (HESI) in negative mode with a flow rate of 0.4 mL/min and a total run time of 50 min. The mobile phases consisted of (A) 20 mM ammonium hydroxide and 20 mM ammonium acetate in H2O and (B) acetonitrile. The gradient was 0 min, 85% B; 0.5 min, 85% B; 15 min, 0% B; 38 min, 0% B; 40 min, 85% B; 50 min, 85% B. The autosampler temperature was 4°C, and the column temperature was 40°C. The Q Exactive Plus Mass Spectrometer parameters were: sheath gas flow rate, 50 units; aux gas flow rate, 13 units; aux gas temperature, 425°C; capillary temperature, 263°C; spray voltage, −2500 V; scan mode, full MS; scan range, 60-900 m/z; resolution, 70,000; AGC target, 3 × 10^6; maximum IT, 200 ms. Data was processed with TraceFinder (Thermo Fisher Scientific, Waltham, MA, USA). %RSDs of a series of stable isotope-labeled internal standards were calculated to check system suitability and data robustness. Relative MS peak area ratio (Peak Area of Analyte / Peak Area of Internal Standard) was used for compound quantification. […] Pyruvate concentration was quantified using a calibration curve of chemical standard (with stable isotope labeled internal standard, Pyruvate-^13C3) in the surrogate matrix."}, "[3]": {"molecular_target": "T1, PFKL (Homo sapiens, UniProt P17858)", "T1 construct": "endogenous in cells; host or cells: THP-1 cell lysate", "T1 sequence (P17858 2-780 limits assumed)": "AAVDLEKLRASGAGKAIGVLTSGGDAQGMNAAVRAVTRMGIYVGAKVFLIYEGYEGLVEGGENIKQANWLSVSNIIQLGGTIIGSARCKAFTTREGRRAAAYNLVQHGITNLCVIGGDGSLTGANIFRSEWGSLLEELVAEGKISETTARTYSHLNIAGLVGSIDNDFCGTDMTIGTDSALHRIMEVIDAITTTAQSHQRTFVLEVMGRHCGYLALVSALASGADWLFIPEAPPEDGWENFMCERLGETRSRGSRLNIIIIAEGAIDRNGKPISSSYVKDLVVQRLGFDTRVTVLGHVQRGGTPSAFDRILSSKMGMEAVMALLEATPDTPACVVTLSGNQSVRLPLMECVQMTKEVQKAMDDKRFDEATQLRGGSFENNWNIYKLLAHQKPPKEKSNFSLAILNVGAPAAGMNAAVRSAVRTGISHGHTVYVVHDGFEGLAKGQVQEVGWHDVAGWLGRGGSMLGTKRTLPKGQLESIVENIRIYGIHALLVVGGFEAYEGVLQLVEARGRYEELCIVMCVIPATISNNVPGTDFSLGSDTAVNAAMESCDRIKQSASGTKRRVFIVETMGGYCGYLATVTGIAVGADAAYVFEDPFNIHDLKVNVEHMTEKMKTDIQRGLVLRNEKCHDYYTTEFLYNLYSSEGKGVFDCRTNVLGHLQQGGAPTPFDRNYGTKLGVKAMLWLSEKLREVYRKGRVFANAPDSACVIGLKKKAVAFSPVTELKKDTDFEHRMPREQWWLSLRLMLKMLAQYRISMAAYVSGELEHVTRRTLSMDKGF", "experiment": "Thermal shift of PFKL by immunoblotting in THP-1 lysates", "type": "binding", "procedure": "Figure 2. Chemoproteomic analysis of the global interactors and specific targets of NA-11 (A) Dual chemoproteomic workflow. (B) TPP analysis of neutrophil lysates. Graph plots the ΔTm induced by NA-11 between 37°C and 65°C versus log2(fold change in the area under the melting curve from 44°C to 58°C). Each circle represents a different protein. Top hits with an upward shift in Tm are boxed. p values were determined by paired Student’s t test. (C) Percentage of PMNs undergoing PMA-induced NETosis. Bars show the mean ± SD of cells from three donors. (D) Structures of PALP1 and PALP6. […] Dot size indicates the p values from the affinity pull-downs (paired Student’s t test). […] (F) Western blots of THP-1 lysates heated for 3 min. Graph indicates PFKL band intensities quantified using ImageJ. Data are the mean ± SD of three independent experiments. See also Figures S2 and S3.\nWe validated the interaction of NA-11 with PFKL in THP-1 cells by immunoblotting PFKL in TPP samples (Figure 2F). […] PDE6δ sustains Ras signaling, which activates the Raf-MEK (mitogen-activated ERK kinase)-ERK (extracellular signal-regulated kinase) pathway ([Chandra et al., 2011]). […] Thus, NA-11 must not inhibit NETosis by compromising the MEK-ERK signaling cascade downstream of PDE6δ."}, "[4]": {"conditions": "in the context of PMA activation"}}}
{"smiles": "CC(=O)Nc1ccc2c(c1)OCc1cc(-c3ccccc3C#CCCCO)nn1C2", "note": "[NA-11]", "values": [{"measurement": "PMA-induced activation of MEK or ERK", "setting": "[1]", "value": "did not perturb PMA-induced activation of MEK or ERK"}, {"measurement": "levels of FBP", "setting": "[2]; compound alone, no PMA", "value": "slightly increased levels of FBP"}, {"measurement": "glycolysis metabolites (FBP, DHAP, G-3-P)", "setting": "[2]; [4]", "value": "increased glycolysis metabolites"}, {"measurement": "pentose phosphate pathway metabolites", "setting": "[2]; [4]", "value": "maintained pentose phosphate pathway metabolites at baseline levels"}, {"measurement": "melting temperature of PFKL with compound", "setting": "[3]; 55°C ± 1°C without shift", "value": 59, "unit": "°C"}, {"measurement": "thermal shift in PFKL", "setting": "[3]; immunoblot", "value": 4, "unit": "°C"}]}
